Laboratory results published in the supplement of paper PMC13380429.

Columns and labels:
Conditions in all cases: 72 h
[1] = system: Caco-2; experiment: cell viability relative to DMSO; higher = less toxic
[2] = system: Calu-3; experiment: as above
[3] = system: HepG2; experiment: as above
[4] = system: U2OS; experiment: as above
[5] = system: Vero E6; experiment: as above
[6] = system: Caco-2; experiment: relative viability EC50 (midpoint between 100% and the lowest measured viability); higher = less toxic
[7] = system: Calu-3; experiment: as above
[8] = system: HepG2; experiment: as above
[9] = system: Caco-2; experiment: drug sensitivity score (DSS) for viability; higher = more toxic; extreme values may be limits of the assay
[10] = system: Calu-3; experiment: as above
[11] = system: HepG2; experiment: as above
[12] = system: U2OS; experiment: as above
[13] = system: Vero E6; experiment: as above
[14] = system: U2OS; experiment: relative viability EC50 (midpoint between 100% and the lowest measured viability); higher = less toxic

Row | Structure (SMILES) | cell viability ([1]; 1 nM) [%] | cell viability ([1]; 10 nM) [%] | cell viability ([1]; 100 nM) [%] | cell viability ([1]; 1000 nM) [%] | cell viability ([1]; 10000 nM) [%] | cell viability ([2]; 1 nM) [%] | cell viability ([2]; 10 nM) [%] | cell viability ([2]; 100 nM) [%] | cell viability ([2]; 1000 nM) [%] | cell viability ([2]; 10000 nM) [%] | cell viability ([3]; 1 nM) [%] | cell viability ([3]; 10 nM) [%] | cell viability ([3]; 100 nM) [%] | cell viability ([3]; 1000 nM) [%] | cell viability ([3]; 10000 nM) [%] | cell viability ([4]; 1 nM) [%] | cell viability ([4]; 10 nM) [%] | cell viability ([4]; 100 nM) [%] | cell viability ([4]; 1000 nM) [%] | cell viability ([4]; 10000 nM) [%] | cell viability ([5]; 1 nM) [%] | cell viability ([5]; 10 nM) [%] | cell viability ([5]; 100 nM) [%] | cell viability ([5]; 1000 nM) [%] | cell viability ([5]; 10000 nM) [%] | relative viability EC50 [6] [µM] | relative viability EC50 [7] [µM] | relative viability EC50 [8] [µM] | drug sensitivity score [9] | drug sensitivity score [10] | drug sensitivity score [11] | drug sensitivity score [12] | drug sensitivity score [13] | relative viability EC50 [14] [µM]
1 | CO[C@H]1CC[C@H](N2C(=O)CNc3ncc(-c4ccc(C(C)(C)O)nc4)nc32)CC1 [CC-223] | 102 | 104 | 99.4 | 81.9 | 42.7 | 94.6 | 87.1 | 106 | 74.4 | 41.6 | 103 | 95.6 | 98.9 | 94.6 | 42.9 | 99.1 | 95.6 | 102 | 97.7 | 56 | 110 | 104 | 99.8 | 92.5 | 52.7 | 1.36 | 1.11 | 2.39 | 5.8 | 6.6 | 4 | 2.6 | 3.7 | –
2 | Cc1cc(C)c2nc(-c3ccccn3)cc(C(=O)Nc3ccc(S(=O)(=O)Nc4onc(C)c4C)cc3)c2c1 [ML193] | 95.2 | 90.1 | 101 | 83.7 | 114 | 97 | 93.5 | 96 | 86.3 | 94.9 | 89.7 | 108 | 100 | 97.2 | 104 | 100 | 98.7 | 103 | 98 | 98.4 | – | – | – | – | – | > 10 | > 10 | > 10 | 0 | 0 | 0 | 0 | – | > 10
3 | C[C@@H]1O[C@@H](O[C@H]2[C@H](Oc3cc(O)c4c(c3)O[C@H](c3ccc(O)cc3)CC4=O)O[C@H](CO)[C@@H](O)[C@@H]2O)[C@H](O)[C@H](O)[C@H]1O [Naringin (Naringoside)] | 92.3 | 95.9 | 97.9 | 96.3 | 102 | 110 | 96.9 | 98.8 | 103 | 98.8 | 104 | 112 | 90 | 97.7 | 98.9 | 99.6 | 94.7 | 101 | 98.2 | 108 | – | – | – | – | – | > 10 | > 10 | > 10 | 0 | 0 | 0 | 0 | – | > 10
4 | O=C(O)C1CN(Cc2ccc(-c3nc4cc(Cc5ccccc5F)ccc4s3)c(F)c2)C1 [TC-SP-14] | 97 | 81.7 | 84.2 | 99.1 | 81.8 | 91.2 | 90.5 | 102 | 95.1 | 107 | 109 | 121 | 90.3 | 119 | 90 | 99.4 | 97.9 | 98.8 | 102 | 101 | – | – | – | – | – | > 10 | > 10 | > 10 | 0 | 0 | 0 | 0 | – | > 10
5 | O=C1C(O)=C([C@H]2CC[C@H](c3ccc(Cl)cc3)CC2)C(=O)c2ccccc21 [atovaquone] | 94.6 | 103 | 104 | 102 | 95.9 | 102 | 107 | 92.2 | 102 | 108 | 99.4 | 90.2 | 94.8 | 98.9 | 107 | 96.8 | 98.3 | 96.5 | 96.4 | 92.8 | 95.2 | 101 | 101 | 99.2 | 66.3 | > 10 | > 10 | > 10 | 0 | 0 | 0 | 0 | 1.7 | > 10
6 | CCC(=O)c1ccc(OCC(O)CN2CCN(c3ccccc3)CC2)cc1 (configuration not stated) [centpropazine] | 96.8 | 92.8 | 94.6 | 93.1 | 98.4 | – | – | – | – | – | 120 | 112 | 106 | 101 | 90 | 100 | 103 | 99.3 | 106 | 97.3 | – | – | – | – | – | > 10 | – | > 10 | 0 | – | 0 | 0 | – | > 10
